Like-named read-outs stand apart in the source and are kept apart here.
Columns and labels:
[1] = test system: human T lymphoblast cell line (Jurkat); assay: Inhibition of T-cell proliferation (3H-TdR incorporation); type: cell-based; details: Jurkat cells; for IC50: 3 days, read-out: Inhibition of T-cell proliferation in vitro. IC50
Description: Inhibition of T cell proliferation was studied in a functional assay. A human T lymphoblast cell line (Jurkat) was cultured in the presence and absence of DHODH inhibiting compounds. Jurkat cells were seeded in microtiterplates at a concentration of 5×10^5/mL in RPMI 1640 growth media supplemented with ultraglutamin, 10% fetal calf serum, 1 mM sodium pyruvat, 10 mM HEPES and 0.1 mg/mL gentamycin. A dilution series of ten different concentrations of inhibitor was added to the wells and the plates were kept in a cell incubator for 3 days. At the beginning of the last 4 hours period, the cultures were pulsed with 10 μl/well 0.1Ci/mmol ^3H-TdR and then harvested on filter papers and counted with a β-counter. The IC50 values for each compound were calculated from the obtained dose response curves. Adding 50 μM uridine to the wells monitored the specificity for the mechanism. This reverses the antiproliferative effect by bypassing the DHODH enzyme using an external source of pyrimidine.
Inhibition of T cell proliferation was studied in a functional assay. Table 1 exemplifies the invention, without limiting the scope thereof. A human T lymphoblast cell line (Jurkat) was cultured in the presence of the compound to be screened. The IC50 value for each compound was calculated from the dose response curve. Adding uridine was used to monitor the specificity of the DHODH mechanism.

[2] = Determination of pharmacokinetic properties in the mouse (cassette dosing); type: in vivo; details: female, SJL/N Tac, plasma, iv, i.v. administration, nominal dose 1 mg/kg/compound
Description: Female mice (SJL/N Tac) were given a single intravenous or oral dose of a mixture of 4 or 6 compounds per cassette (nominal dose: 1 mg/kg/compound). The test items were formulated in physiological saline/5% Cremophor® to a final concentration of each 0.1 mg/mL. Blood samples were collected from vena cava (terminal bleed) into sodium heparinised tubes. The dose formulations and plasma concentrations of each compound were determined by LC-MS/MS. The pharmacokinetic parameters were determined by non-compartmental analysis using WinNonlin Professional (version 4.0.1).
The clearance (CL) and half-life (t1/2) of representative compounds in the mouse following i.v. administration are shown in Table 2. Table 2 exemplifies the invention, without limiting the scope thereof.

recombinant human DHODH = recombinant human DHODH (Homo sapiens, UniProt Q02127); assay: Inhibition assay of DHODH activity (DHO-driven reduction of DCIP); type: biochemical
Chain of recombinant human DHODH (Q02127 whole entry): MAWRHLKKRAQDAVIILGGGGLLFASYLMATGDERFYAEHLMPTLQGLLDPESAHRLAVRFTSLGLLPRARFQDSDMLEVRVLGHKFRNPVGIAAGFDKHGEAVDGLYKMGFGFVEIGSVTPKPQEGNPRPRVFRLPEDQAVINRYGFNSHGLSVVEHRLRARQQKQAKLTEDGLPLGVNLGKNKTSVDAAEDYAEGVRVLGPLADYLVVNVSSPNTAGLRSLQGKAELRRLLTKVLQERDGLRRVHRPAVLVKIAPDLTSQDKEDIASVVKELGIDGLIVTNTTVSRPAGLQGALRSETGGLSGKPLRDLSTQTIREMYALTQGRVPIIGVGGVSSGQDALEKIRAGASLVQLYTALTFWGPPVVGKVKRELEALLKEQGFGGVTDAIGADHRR
Description: Inhibition of recombinant human DHODH was assayed by the dihydroorotate (DHO) driven reduction of dichloroindophenol (DCIP), (Bruneau et al., 1998). The standard assay mixture contained 0.4 μg/mL recombinant protein, 50 mM Tris pH8, 100 μM decylubiquinone, 1 mM KCN, 200 μM DCIP and 0.1% Triton X-100. Inhibitory compounds were added at 10 different concentrations and the enzyme reaction initiated by the addition of 500 μM DHO. The reaction was allowed to continue for 10 minutes before the reduction of DCIP was measured in a microtiterplate reader as a decrease in absorbance at 650 nm. The IC50 values (concentration of inhibitor required for 50% inhibition) for each compound were calculated from the obtained dose response curves.

SMILES	clearance [2] [L/h/kg]	half-life [2] [h]	IC50 ([1]; Homo sapiens, 72 h) [µM]	also measured
CCCN(CCC)c1ccccc1Oc1ccc(NC(=O)CC)c(C(=O)O)c1 [Compound AB, 5-(2-dipropylamino-phenoxy)-2-propionylamino-benzioc acid]				IC50 [1]: 0.15 µM
CC(=O)Nc1ccc(CCc2ccccc2)cc1C(=O)O [Compound AF, 2-Acetylamino-5-phenethyl-benzoic acid, reference compound]	0.97	0.29		
CCC(=O)Nc1ccc(Sc2ccccc2OC(F)(F)F)cc1C(=O)O [Compound AE, 2-propionylamino-5-(2-trifluoromethoxy-phenylsulfanyl)-benzioc acid]				IC50 [1]: 0.39 µM
CCC(=O)Nc1ccc(/C=C/c2ccccc2)cc1C(=O)O [Compound AG, 2-Propionylamino-5-[(E)-styryl]-benzoic acid]	0.12	10		
CCC(=O)Nc1ccc(NCc2ccccc2C(F)(F)F)cc1C(=O)O [Compound K, 2-propionylamino-5-(2-trifluoromethyl-benzylamino)-benzoic acid]	0.07	2.2	0.79	
CCC(=O)Nc1ccc(Oc2ccccc2C(F)(F)F)cc1C(=O)O [Compound L, 2-propionylamino-5-(2-trifluoromethyl-phenoxy)-benzoic acid]	0.015	3.1	0.78	
CCC(=O)Nc1ccc(COc2ccccc2C(F)(F)F)cc1C(=O)O [Compound N, 2-propionylamino-5-(2-trifluoromethyl-phenoxymethyl)-benzoic acid]	0.14	1.5	0.52	
CCC(=O)Nc1ccc(COc2ccccc2OC(F)(F)F)cc1C(=O)O [Compound AD, 2-propionylamino-5-(2-trifluoromethoxy-phenoxymethyl)-benzoic acid]			0.24	
CCC(=O)Nc1ccc(CSc2ccccc2C(F)(F)F)cc1C(=O)O [Compound P, 2-propionylamino-5-(2-trifluoromethyl-phenylsulfanylmethyl)-benzoic acid]			0.21	
COc1ccc(OC)c(COc2ccc(O)c(C(=O)O)c2)c1 [5-(2,5-dimethoxy-benzyloxy)-2-hydroxy-benzoic acid]				DHODH inhibition (in words) (recombinant human DHODH): inactive
CCC(=O)Nc1ccc(/C=C/c2ccccc2C(F)(F)F)cc1C(=O)O [Compound Q]				IC50 [1]: 0.11 µM
CCC(=O)Nc1ccc(/C=C/c2cccc(C(F)(F)F)c2)cc1C(=O)O [Compound R]				IC50 [1]: 0.45 µM
CCCNc1ccccc1Oc1ccc(NC(=O)CC)c(C(=O)O)c1 [Compound T, 2-propionylamino-5-(2-propylamino-phenoxy)-benzoic acid]			0.24	
COc1ccc(OC)c(COc2ccc(NC(C)=O)c(C(=O)O)c2)c1 [Compound G, 2-acetylamino-5-(2,5-dimethoxy-benzyloxy)-benzoic acid, reference compound]	0.71	0.3	6.2	inhibitory effect on T-cell proliferation (in words) [1]: only a weak inhibitory effect
CCC(=O)Nc1ccc(CCc2ccccc2C(F)(F)F)cc1C(=O)O [Compound J, 2-propionylamino-5-[2-(2-trifluoromethyl-phenyl)-ethyl]-benzoic acid, reference compound]			2.9	inhibitory effect on T-cell proliferation (in words) [1]: weak antiproliferative effect
CCC(=O)Nc1ccc(Oc2cc(C(F)(F)F)cc(C(F)(F)F)c2)cc1C(=O)O [Compound S, 5-(3,5-bis-trifluoromethyl-phenoxy)-2-propionylamino-benzoic acid]			0.14	
CCC(=O)Nc1ccc(OCc2ccccc2C(F)(F)F)cc1C(=O)O [Compound M, 2-propionylamino-5-(2-trifluoromethyl-benzyloxy)-benzoic acid]	0.11	4.9	0.33	
COc1ccc(OC)c(CCc2ccc(NC(C)=O)c(C(=O)O)c2)c1 [Compound H, 2-Acetylamino-5-[2-(2,5dimethoxy-phenyl)-ethyl]-benzoic acid, reference compound]			12	inhibitory effect on T-cell proliferation (in words) [1]: very weak inhibitory effect
CCCNc1ccccc1COc1ccc(NC(=O)CC)c(C(=O)O)c1 [Compound U, 2-propionylamino-5-(2-propylamino-benzyloxy)-benzoic acid]			0.11	
CCCNc1ccccc1Sc1ccc(NC(=O)CC)c(C(=O)O)c1 [Compound AA, 2-propionylamino-5-(2-propylamino-phenylsulfanyl)-benzoic acid]			0.04	
CCC(=O)Nc1ccc(Sc2ccccc2C(F)(F)F)cc1C(=O)O [Compound O, 2-propionylamino-5-(2-trifluoromethyl-phenylsulfanyl)-benzoic acid]	0.033	4.6	0.25	
CCC(=O)Nc1ccc(Cc2ccccc2)cc1C(=O)O [Compound AH, 5-Benzyl-2-propionylamino-benzoic acid]	0.018	6.6		
CCC(=O)Nc1ccc(OCc2ccccc2OC(F)(F)F)cc1C(=O)O [Compound AC, 2-propionylamino-5-(2-trifluoromethoxy-benzyloxy)-benzoic acid]			0.3	

From patent publication US7074831B2, “Compounds, methods for their preparation and use thereof” (Active Biotech AB, priority 2004, dated 2006)
